Measurements taken from patent US20240247031A1, “COMPOSITION FOR TREATING CANCER CONTAINING TELOMERASE-TARGETING GNRH ANTAGONIST-DERIVED PEPTIDE HS1002” (Research & Business Foundation Sungkyunkwan University, priority 2023, published 2024).

Experiments:
[1] = tested on: Ki-67 and hTERT in LNCaP tumor tissue; assay: Ki-67 immunohistochemistry and hTERT immunoblotting in xenograft tumor tissue (FIG. 18); type: in vivo, mouse; settings: s.c. administration, compared with the control group
Experimental: Mice were sacrificed, and the excised tumors were fixed in 10% formalin and impregnated with paraffin. For pathological examination, immunohistochemistry was performed by the avidin-biotin complex method using Ki-67 antibodies. The immune response was visualized with a reagent (3,3-diaminobenzidine) and counter-stained with Mayer's hematoxylin. TUNEL assay in tissue was performed using ApopTag Plus Peroxidase in Situ Apoptosis Detection kits (Intergen, Purchase, NY)) according to the manufacturer's indications. In summary, paraffin was removed from slides, and the slides were placed in 3% hydrogen peroxide to inhibit endogenous peroxidase. The slides were incubated in a reaction buffer containing an enzyme (terminal deoxynucleotidyl transferase) at 37° C. for 1 h. The slides were incubated with peroxidase-conjugated anti-digoxigenin antibodies for 30 min, and the reaction product was visualized with a solution containing 2 mmol hydrogen peroxide (0.03% 3,3-diaminobenzidine solution). Counterstaining was performed with 0.5% methyl green. Ki-67- and TUNEL-positive cells were counted and expressed as an average of the five highest areas within a single×200 field. A portion of tumor tissue was homogenized, followed by immunoblotting for hTERT.

HEK293-Vector cells = assay: Intracellular calcium flux assay, mock-transfected cells; type: cell-based, human; settings: 1 and 10 nM
Experimental: (§1) Human embryonic kidney cell line (HEK293), and mouse cancer cell lines (MC38, 4T1) were purchased from the American Type Culture Collection (Manassas, VA, USA). All cell lines were grown in Dulbecco's Modified Essential Medium (DMEM) or Roswell Park Memorial Institute (RPMI) 1640 supplemented with 10% FBS, 100 U/mL penicillin, and 100 μg/mL streptomycin (WelGENE, Daegu, South Korea) in a humidified atmosphere of 5% CO2 at 37° C. To obtain GnRHR-overexpressing HEK293 (HEK293-GnRHR) cells, transfection of the pCMV-AC-GFP-GnRHR vector (HEK293-GnRHR) was performed using Lipofectamine™ 3000 according to the manufacturer's instructions (Cat. 100022052, Thermo Fisher Scientific, Waltham, MA, USA). Colonies of geneticin-resistant cells were selected by adding G418 (800 μg/mL, Sigma) to the culture medium. The HEK293-pCMV-AC-GFP vector (HEK293-Vector) cells were used as a mock-transfection group.
Intracellular calcium mobilization was measured using the Calcium Flux Assay Kit (Cat. ab233472, abcam) in response to different concentrations of each peptide. The percentage increase was calculated relative to basal fluorescence intensity. The experiment was performed in triplicate.

HEK293-GnRHR cells = target: T1, HEK293-GnRHR cells (Homo sapiens, UniProt P30968); assay: CRE-luciferase reporter assay; type: cell-based
T1 construct: GFP; expressed in transfected cells
T1 sequence (P30968 1-328): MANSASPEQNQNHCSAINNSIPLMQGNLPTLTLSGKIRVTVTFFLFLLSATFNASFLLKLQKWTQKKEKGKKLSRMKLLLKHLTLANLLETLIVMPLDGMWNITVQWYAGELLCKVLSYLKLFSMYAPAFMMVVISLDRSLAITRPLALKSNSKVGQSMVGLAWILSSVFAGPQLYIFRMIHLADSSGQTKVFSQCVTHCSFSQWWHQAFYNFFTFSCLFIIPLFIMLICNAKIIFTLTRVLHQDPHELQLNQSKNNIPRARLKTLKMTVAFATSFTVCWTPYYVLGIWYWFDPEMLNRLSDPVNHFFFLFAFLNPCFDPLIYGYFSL
Experimental: as §1
The HEK293-pCMV6-AC-GFP and HEK293-GnRHR cells (4×10^4 cells/well) were grown in 96-well plates and co-transfected with a luciferase reporter plasmid containing a cAMP response element (CRE) using Lipofectamine 3000 (Life Technologies). The transfected cells were exposed to different concentrations of peptide for 24 h, and the promoter activity was measured by a dual-luciferase reporter assay system (BPS Bioscience). The firefly and Renilla luciferase activities were measured using a microplate luminometer (Thermo, Varioskan LUX Multimode Microplate Reader). The calculation of relative luciferase activities involved the normalization of the firefly luciferase activity […].

PC3 = assay: MTT cytotoxicity on various cancer cells (Table 1); type: cell-based, human; settings: prostate cancer cell line PC3; MTT, 48 h
Experimental: (§2) To evaluate anticancer activities of the produced peptides on various types of cancer cells, MTT analysis was performed. Human prostate cancer cell lines (LNCaP, PC3, and DU145), human breast cancer cell lines (MDA-MB-231 and MCF-7), lung cancer cell line (A549), and ovarian cancer cell line (SKOV3) were cultured in RPMI media supplemented with 1% penicillin/streptomycin and 1% fetal bovine serum (all from Life Technologies, Grand Island, NY). The cells were seeded in 96-well plates containing 100 μL of growth media for 24 h. The media were removed, and then 100 μL of the peptide (solvent DPBS) at each concentration was added to each well and incubated at 37° C. for 48 h. After incubation for 48 h, 100 μL of MTT reagent was added to each well. The cells were incubated at 37° C. for 4 h, and then the supernatant was removed. Formazan crystals were dissolved in 100 μL of DMSO with gentle stirring at 37° C. for 10 min. The absorbance per well was measured at 540 nm using a VERSA max microplate reader (Molecular Devices Corp.).

SKOV3 = assay: MTT cytotoxicity on various cancer cells (Table 1); type: cell-based, human; settings: ovarian cancer cell line SKOV3; MTT, 48 h
Experimental: as §2

A549 = assay: MTT cytotoxicity on various cancer cells (Table 1); type: cell-based, human; settings: lung cancer cell line A549; MTT, 48 h
Experimental: as §2

DU145 = assay: MTT cytotoxicity on various cancer cells (Table 1); type: cell-based, human; settings: prostate cancer cell line DU145; MTT, 48 h
Experimental: as §2

telomerase = assay: Telomerase activity quantification qPCR in treated LNCaP cells (FIG. 10, 11); type: cell-based, human; settings: FIG. 11
Experimental: After treatment with GV1001, HS1001, HS1002, and GnRH, the changes in hTERT mRNA and protein expression level were investigated for each peptide. The drug treatment was performed every 24 h considering the stability of peptides in aqueous solutions. To investigate the telomerase activity reducing effect of the peptides, prostate cancer cell lines (LNCaP) were treated with each drug at 300 μM every 24 h for a total of 72 h and then measured for telomerase activity through qPCR. The proteins in a cell lysate were quantified to obtain a telomerase product extended by the same amount of proteins, and qPCR was performed using the telomerase as a template.
In the treatment with the peptides, the change in telomerase activity was investigated. The cells were cultured in 100-mm plates each, and about 24 h later, the cells were treated with the peptides synthesized in Example 3 at a concentration of 300 μM before incubation. The cells were cultured in a 37° C., 5% CO2 incubator using 1% FBS RPMI media. The cells were harvested 72 h after the peptide treatment and measured for telomerase activity. A telomerase activity quantification qPCT analysis kit (ScienCell, Carlsbad, CA, USA) was used.

CCNC(=O)[C@@H]1CCCN1C(=O)[C@@H](NC(=O)[C@H](Cc1ccccc1)NC(=O)[C@H](CCCNC(=N)N)NC(=O)[C@H](CC(C)C)NC(=O)[C@H](CCCNC(=N)N)NC(=O)[C@H](Cc1ccc(O)cc1)NC(=O)[C@H](CO)NC(=O)[C@H](Cc1c[nH]c2ccccc12)NC(=O)[C@H](Cc1c[nH]cn1)NC(=O)[C@@H]1CCC(=O)N1)[C@@H](C)CC [HS1002]
Ki-67 protein expression level in tumor tissues [1]: distinctively reduced | hTERT protein expression level in tumor tissues [1]: distinctively reduced | calcium flux (HEK293-Vector cells): increased calcium flux | CRE-luciferase activity compared to the control (HEK293-GnRHR cells; 10 μM): 2 fold | cAMP-mediated promoter binding activity (CRE-luciferase), concentration dependence (HEK293-GnRHR cells; 24 h): concentration-dependently enhanced | Cytotoxicity (IC50) PC3 (PC3): 7.56 ± 0.61 µg/mL | Cytotoxicity (IC50) SKOV3 (SKOV3): 4.91 ± 0.41 µg/mL | Cytotoxicity (IC50) A549 (A549): 7.94 ± 0.07 µg/mL | Cytotoxicity (IC50) DU145 (DU145): 5.23 ± 0.65 µg/mL | telomerase activity compared with GV1001 (telomerase): better telomerase activity than GV1001
